{"source": "patent US20090181989A1", "about": "“Purine Compunds as HSP90 Protein Inhibitors for the Treatment of Cancer” (VERNALIS ( R & D) LTD., priority 2005, published 2009)", "data": [{"biological_target": "T1, human full-length HSP90 (Homo sapiens, UniProt P08238)", "T1 construct": "E. coli expressed human full-length HSP90 protein; made in house; host or cells: E. coli", "test": "Fluorescence polarization assay (competitive displacement of fluorescein-labelled probe VER00051001-FAM from HSP90)", "type": "binding", "conditions": "activity range in the fluorescence polarization assay; E. coli expressed human full-length HSP90 200 nM, probe 80 nM", "description": "Fluorescence Polarization Assay\nFluorescence polarization {also known as fluorescence anisotropy} measures the rotation of a fluorescing species in solution, where the larger molecule the more polarized the fluorescence emission. When the fluorophore is excited with polarized light, the emitted light is also polarized. The molecular size is proportional to the polarization of the fluorescence emission.\nThe fluoroscein-labelled probe-VER00051001-FAM-\nbinds to HSP90 {full-length human, full-length yeast or N-terminal domain HSP90} and the anisotropy {rotation of the probe:protein complex} is measured.\nTest compound is added to the assay plate, left to equilibrate and the anisotropy measured again. Any change in anisotropy is due to competitive binding of compound to HSP90, thereby releasing probe.\nChemicals are of the highest purity commercially available and all aqueous solutions are made up in AR water. • 1) Costar 96-well black assay plate #3915 • 2) Assay buffer of (a) 100 mM Tris pH7.4; (b) 20 mM KCl; (c) 6 mM MgCl2. Stored at room temperature. • 3) BSA (bovine serum albumen) 10 mg/ml (New England Biolabs # B9001S) • 4) 20 mM probe in 100% DMSO stock concentration. Stored in the dark at RT. Working concentration is 200 nM diluted in AR water and stored at 4° C. Final concentration in assay 80 nM. • 5) E. coli expressed human full-length HSP90 protein, purified >95% (see, e.g., Panaretou et al., 1998) and stored in 50 μL aliquots at −80° C.\n• 1) Add 100 μl 1× buffer to wells 11A and 12A(═FPBLNK) • 2) Prepare assay mix—all reagents are kept on ice with a lid on the bucket as the probe is light-sensitive.\n• 3) Aliquot 100 μl assay mix to all other wells • 4) Seal plate and leave in dark at room temp for 20 minutes to equilibrate Compound Dilution Plate—1×3 dilution series • 1) In a clear 96-well v-bottom plate—{# VWR 007/008/257} add 10 μl 100% DMSO to wells B1 to H11 • 2) To wells A1 to A11 add 17.5 μl 100% DMSO • 3) Add 2.5 μl cpd to A1. This gives 2.5 mM {50×} stock cpd—assuming cpds 20 mM. • 4) Repeat for wells A2 to A10. Control in columns 11 and 12. • 5) Transfer 5 μl from row A to row B- not column 12. Mix well. • 6) Transfer 5 μl from row B to row C. […] In column 11 {provides standard curve} only add compound B11-H11. Add 2 μl of 100 mM standard cpd to wells B12-H12 {is positive control} • 13) The Z′ factor is calculated from zero controls and positive wells. It typically gives a value of 0.7-0.9.\nThe compounds tested in the above assay were assigned to one of two activity ranges, namely A=<10 μM; B=>10 μM, and those assignments are reported above.", "units": {"IC50": "µM"}, "values": [{"molecule": "Clc1ccc(-c2nc(Cl)nc3[nH]cnc23)c(Cl)c1", "note": "[Example 1, 2-Chloro-6-(2,4-dichloro-phenyl)-9H-purine]", "IC50": "< 10"}, {"molecule": "Clc1nc(-c2cc(OCc3ccccc3)c(Cl)cc2Cl)c2nc[nH]c2n1", "note": "[Example 2, 6-(5-Benzyloxy-2,4-dichloro-phenyl)-2-chloro-9H-purine]", "IC50": "< 10"}, {"molecule": "Cc1ccc(-c2nc(Cl)nc3[nH]cnc23)c(C)c1", "note": "[Example 3]", "IC50": "< 10"}, {"molecule": "Cc1ccc(-c2nc(Cl)nc3[nH]cnc23)c2ccccc12", "note": "[Example 4]", "IC50": "> 10"}, {"molecule": "Clc1nc(-c2ccc3c(c2)CCO3)c2nc[nH]c2n1", "note": "[Example 5]", "IC50": "> 10"}, {"molecule": "N#Cc1ccc(-c2nc(Cl)nc3[nH]cnc23)cc1", "note": "[Example 6]", "IC50": "< 10"}, {"molecule": "Cc1ccc(-c2nc(Cl)nc3[nH]cnc23)c(Cl)c1", "note": "[Example 8]", "IC50": "< 10"}, {"molecule": "Cc1cc(Cl)ccc1-c1nc(Cl)nc2[nH]cnc12", "note": "[Example 9]", "IC50": "< 10"}, {"molecule": "Cc1cc(F)ccc1-c1nc(Cl)nc2[nH]cnc12", "note": "[Example 10]", "IC50": "< 10"}, {"molecule": "Clc1nc(-c2ccccc2)c2nc[nH]c2n1", "note": "[Example 11]", "IC50": "< 10"}, {"molecule": "CSc1nc(-c2cc(OCc3ccccc3)c(Cl)cc2Cl)c2nc[nH]c2n1", "note": "[Example 12, 6-(5-benzyloxy-2,4-dichloro-phenyl)-2-methylsulfanyl-9H-purine]", "IC50": "< 10"}, {"molecule": "CSc1nc(-c2ccc(C#N)cc2)c2nc[nH]c2n1", "note": "[Example 13, 6-(4-cyano-phenyl)-2-methylsulfanyl-9H-purine]", "IC50": "< 10"}, {"molecule": "CSc1nc(-c2ccc(Cl)cc2Cl)c2nc[nH]c2n1", "note": "[Example 14, 6-(2,4-dichloro-phenyl)-2-methylsulfanyl-9H-purine]", "IC50": "< 10"}, {"molecule": "CSc1nc(-c2ccc(F)cc2C)c2nc[nH]c2n1", "note": "[Example 15, 6-(2-methyl-4-fluoro-phenyl)-2-methylsulfanyl-9H-purine]", "IC50": "< 10"}, {"molecule": "CCNC(=O)CSc1nc(-c2ccc(Cl)cc2Cl)c2nc[nH]c2n1", "note": "[Example 16]", "IC50": "< 10"}, {"molecule": "CSc1nc(-c2ccc3ccccc3c2)c2nc[nH]c2n1", "note": "[Example 17]", "IC50": "> 10"}, {"molecule": "Clc1ccc(-c2nc(Sc3nc[nH]n3)nc3[nH]cnc23)c(Cl)c1", "note": "[Example 18]", "IC50": "< 10"}, {"molecule": "CSc1nc(-c2ccc(Cl)cc2C)c2nc[nH]c2n1", "note": "[Example 19]", "IC50": "< 10"}, {"molecule": "CCOC(=O)CSc1nc(-c2ccc(Cl)cc2Cl)c2nc[nH]c2n1", "note": "[Example 20]", "IC50": "< 10"}, {"molecule": "CCNC(=O)C(C)(C)Sc1nc(-c2ccc(Cl)cc2Cl)c2nc[nH]c2n1", "note": "[Example 21]", "IC50": "> 10"}, {"molecule": "CN(C)CCSc1nc(-c2ccc(Cl)cc2Cl)c2nc[nH]c2n1", "note": "[Example 22]", "IC50": "< 10"}, {"molecule": "COc1nc(-c2ccc(Cl)cc2Cl)c2nc[nH]c2n1", "note": "[Example 23, 6-(2,4-Dichloro-phenyl)-2-methoxy-9H-purine]", "IC50": "< 10"}, {"molecule": "CCN(CC)Cc1ccc(COc2cc(-c3nc(Cl)nc4[nH]cnc34)c(Cl)cc2Cl)cc1", "note": "[Example 24, {4-[2,4-Dichloro-5-(2-chloro-9H-purin-6-yl)-phenoxymethyl]-benzyl}-diethyl-amine]", "IC50": "< 10"}, {"molecule": "CS(=O)(=O)c1nc(-c2ccc(Cl)cc2Cl)c2nc[nH]c2n1", "note": "[Example 25, 6-(2,4-Dichloro-phenyl)-2-methanesulfonyl-7H-purine]", "IC50": "> 10"}, {"molecule": "C[S+]([O-])c1nc(-c2ccc(Cl)cc2Cl)c2nc[nH]c2n1", "note": "(stereo not drawn) [Example 26, 6-(2,4-Dichloro-phenyl)-2-methanesulfinyl-7H-purine]", "IC50": "> 10"}, {"molecule": "Cc1cc(Cl)c(-c2nc(Cl)nc3[nH]cnc23)cc1O", "note": "[Example 27, 4-Chloro-5-(2-chloro-9H-puriny-6-yl)-2-methyl-phenol]", "IC50": "< 10"}, {"molecule": "CCN(CC)CCOc1cc(-c2nc(Cl)nc3[nH]cnc23)c(Cl)cc1C", "note": "[Example 28, {2-[4-Chloro-5-(2-chloro-9H-purin-6-yl)-2-methyl-phenoxy]-ethyl}-diethyl-amine]", "IC50": "< 10"}, {"molecule": "CCN(CC)CCOc1cc(-c2nc(SC)nc3[nH]cnc23)c(Cl)cc1C", "note": "[Example 29, {2-[4-Chloro-2-methyl-5-(2-methylsulfanyl-9H-purin-6-yl)-phenoxy]-ethyl}-diethyl-amine]", "IC50": "< 10"}, {"molecule": "CCNC(=O)CSc1nc(-c2cc(OCCN(CC)CC)c(C)cc2Cl)c2nc[nH]c2n1", "note": "[Example 30, 2-{6-[2-Chloro-5-(2-diethlamino-ethoxy)-4-methyl-phenyl]-9H-purin-2-ylsulfanyl}-N-ethyl Acetamide]", "IC50": "< 10"}, {"molecule": "CSc1nc(-c2ccc(C)cc2C)c2nc(Cl)[nH]c2n1", "note": "[Example 31, 8-Chloro-6-(2,4-dimethyl-phenyl)-2-methylsulfanyl-9H-purine]", "IC50": "> 10"}, {"molecule": "CSc1nc(-c2ccc(C)cc2C)c2nc(C)[nH]c2n1", "note": "[Example 32, 6-(2,4-Dimethyl-phenyl)-8-methyl-2-methylsulfanyl-9H-purine]", "IC50": "> 10"}, {"molecule": "CSc1nc(-c2ccc(C)cc2C)c2nc(C#N)[nH]c2n1", "note": "[Example 33, 6-(2,4-Dimethyl-phenyl)-2-methylsulfanyl-9H-purine-8-carbonitrile]", "IC50": "> 10"}, {"molecule": "CN(C)CCCOc1cc(-c2nc(Cl)nc3[nH]cnc23)c(Cl)cc1Cl", "note": "[Example 34, {3-[2,4-Dichloro-5-(2-chloro-9H-purin-6-yl)-phenoxy]-propyl}-dimethyl-amine]", "IC50": "< 10"}, {"molecule": "CCN(CC)CCOc1cc(-c2nc(Cl)nc3[nH]cnc23)c(Cl)cc1Cl", "note": "[Example 35, {2-[2,4-Dichloro-5-(2-chloro-9H-purin-6-yl)-phenoxy]-ethyl}-diethyl-amine]", "IC50": "< 10"}, {"molecule": "Clc1nc(-c2cc(OCCN3CCCC3)c(Cl)cc2Cl)c2nc[nH]c2n1", "note": "[Example 36, 2-Chloro-6-[2,4-dichloro-5-(2-pyrrolidin-1-yl-ethoxy)-phenyl]-9H-purine]", "IC50": "< 10"}, {"molecule": "O=C1CCCN1CCOc1cc(-c2nc(Cl)nc3[nH]cnc23)c(Cl)cc1Cl", "note": "[Example 37, 1-{2-[2,4-Dichloro-5-(2-chloro-9H-purin-6-yl)-phenoxy]-ethyl}-pyrrolidin-2-one]", "IC50": "< 10"}]}]}
